Experimental data taken from publication PMC9705314, “Characterization of a new potent and long-lasting single chain peptide agonist of RXFP1 in cells and in vivo translational models” (Scientific Reports, 2022).
Residue numbers refer to the chain shown, from its start. *1 amine or outer side, *2 acyl side, *3 side chain or, on linkers, in order; H or OH if unused. Where a SMILES comes first, the peptide text is derived from it. Side-chain parts run from the residue outwards. [ ]: non-standard residue; d: D form. The star is where a group is joined. γGlu = O=C(O)[C@H](CCC(=O)[*:2])N[*:1]; Stearoyl = CCCCCCCCCCCCCCCCCC(=O)*; Nle = CCCC[C@H](N)C(=O)O; AEEA = NCCOCCOCC(=O)O; Aib = CC(C)(N)C(=O)O

Tests used:
hRXFP1 (S69P) = target: T1, hRXFP1 (S69P) (Homo sapiens, UniProt Q9HBX9, S69P); test: cAMP production in HEK cells expressing hRXFP1 (S69P); assay type: cell-based; details: hRXFP1 S69P mutant, n = 4 experiments in duplicate
T1 sequence (Q9HBX9 1-757 S69P): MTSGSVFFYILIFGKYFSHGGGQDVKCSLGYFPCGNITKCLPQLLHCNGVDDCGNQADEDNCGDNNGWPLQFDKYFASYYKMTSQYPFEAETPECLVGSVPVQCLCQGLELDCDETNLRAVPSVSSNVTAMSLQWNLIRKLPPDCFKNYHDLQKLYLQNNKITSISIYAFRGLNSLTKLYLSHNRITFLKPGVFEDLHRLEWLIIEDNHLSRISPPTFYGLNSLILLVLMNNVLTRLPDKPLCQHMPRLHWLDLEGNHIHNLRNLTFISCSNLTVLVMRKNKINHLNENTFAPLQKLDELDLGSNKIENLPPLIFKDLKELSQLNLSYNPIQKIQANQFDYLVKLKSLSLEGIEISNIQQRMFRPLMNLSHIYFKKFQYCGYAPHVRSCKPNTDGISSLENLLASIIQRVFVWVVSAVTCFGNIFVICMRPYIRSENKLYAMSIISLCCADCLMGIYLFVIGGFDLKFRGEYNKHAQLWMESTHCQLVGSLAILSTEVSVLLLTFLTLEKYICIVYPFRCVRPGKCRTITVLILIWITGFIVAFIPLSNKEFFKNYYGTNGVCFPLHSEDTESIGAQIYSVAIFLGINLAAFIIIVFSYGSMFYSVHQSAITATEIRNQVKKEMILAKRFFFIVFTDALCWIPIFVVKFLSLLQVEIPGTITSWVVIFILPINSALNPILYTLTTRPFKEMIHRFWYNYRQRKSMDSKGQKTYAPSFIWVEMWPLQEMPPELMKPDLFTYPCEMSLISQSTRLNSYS
Protocol: HEK cells were stably transduced with lentiviral constructs (Vectalys, MOI 20, batches rV2.1A1.5057 B, rV2.1A1.5056 B and rV2.1A1.5059 B) containing a bicistronic vectors encoding hRXFP1 (S69P) or hRXFP1 (F76V) or hRXFP1 (S69P/F76V) under the EF1 promoter followed by an internal ribosome entry site (IRES) elements to express the neomycin antibiotic resistance gene for selection with 500 μg/mL Geneticin (Invitrogen, #10131-019). Three days post transduction, HEK cells were grown in the presence of Genetecin. Positive individual clones were selected and amplified, and cAMP readout (nM) was used as described for other cell types at a cell density of 8000 cells/well.

wild type EA.hy926 cells = test: xCELLigence real time impedance in wild type EA.hy926 cells; assay type: cell-based, human
Protocol: Cell impedance assays in both wild type EA.hy926 and EA.hy926_RXFP1 cell lines were performed using a MP RCTA xCELLigence Analyzer (ACEA Biosciences) on E-Plates. 20,000 cells/well were seeded in E-plates in 200 µL of growth medium and left to settle for 30 min at room temperature. Plates were then placed into the xCELLigence RTCA MP Instrument under 5% CO2 at 37 °C and impedance was continuously measured every 15 min overnight. The next day, a 4-h serum starvation was performed using the same medium but with 0.1% FCS (impedance measurement every 5 min).
Data analysis was performed using RTCA2.0 software according to ACEA recommendations. Raw impedance expressed as cell index was normalized for each well by dividing individual Cell Index values by baseline Cell index values obtained 5 min before peptide treatment in order to obtain Normalized Cell Index (NCI): mean NCI from 4 replicates for each condition are presented.

RXFP1 = target: T2, RXFP1 (Homo sapiens, UniProt Q9HBX9); test: Phospho-VASP (Ser157) MSD assay in EA.hy926_RXFP1 cells; assay type: cell-based; design: expressed in transfected cells; host or cells: EA.hy926 (ATCC CRL-2922), lentiviral transduction, puromycin selection; details: serum-free DMEM, 20 min 37 °C, n = 3, read-out: EC50 [CI95%] VASP phosphorylation on S157
T2 sequence (Q9HBX9 1-757): T1 sequence (Q9HBX9 1-757 S69P) with P69S
Protocol: These experiments were conducted according to the MSD protocol (K151FFD-2) and using a Sector 2400 from Mesoscale Discovery. In order to reduce the basal phosphorylation activity of VASP protein, EA.hy926_RXFP1 cells were stimulated with effector solutions in basal DMEM (i.e., without serum). Cells were plated in 96-well plate at a density of 35.000 cells/well overnight in a volume of 200µL of cell culture media. Prior to stimulation, growth medium was discarded, and the cells were washed one time with basal DMEM medium, before being incubated for 4 h with basal DMEM medium at 37 °C in 5% CO2. […] For control cells, 50µL of basal DMEM medium without effector standard solution were added onto the cells. The microplates were incubated for 20 min at 37 °C in 5% CO2. All the following steps were carried-out on ice. Medium was aspirated and the cells were directly lysed by addition of 50μL of complete lysis buffer/well (lysis buffer is provided in the pVASP assay kit and prepared according to MSD instructions). The microplates were placed for 60 min under orbital agitation. The cell lysates were collected in round bottom microplate then stored at − 80 °C until pVASP content determination according to MSD protocol.

Molecule | cAMP response (efficacy) (hRXFP1 (S69P)) | impedance response (wild type EA.hy926 cells) | EC50 (RXFP1) [nM]
relaxin | reduced in all RXFP1 mutants compared to the wild type construct | Neither relaxin nor SA10SC-RLX induced a response | –
CCCCCCCCCCCCCCCCCC(=O)N[C@@H](CCC(=O)N[C@@H](CCC(=O)N[C@@H](CCC(=O)NCCOCCOCC(=O)NCCOCCOCC(=O)NCCOCCOCC(=O)NCCCC[C@H](NC(=O)[C@H](CCCCNC(C)=O)NC(=O)[C@H](CCCCN)NC(=O)[C@H](CCCNC(=N)N)NC(=O)C(C)(C)NC(=O)[C@H](CO)NC(=O)[C@H](Cc1c[nH]c2ccccc12)NC(=O)[C@@H](NC(=O)[C@H](CO)NC(=O)[C@H](CCCC)NC(=O)CNC(=O)[C@H](CCC(=O)O)NC(=O)C(C)(C)NC(=O)C(C)(C)NC(=O)[C@@H](NC(=O)[C@H](CCCCNC(C)=O)NC(=O)[C@H](C)NC(=O)[C@H](CCCNC(=N)N)NC(=O)[C@@H](NC(=O)[C@H](CCCCN)NC(=O)[C@H](CCC(=O)O)NC(=O)[C@H](CCCNC(=N)N)NC(=O)CNC(=O)[C@H](CCC(=O)O)NC(=O)[C@H](CC(C)C)NC(C)=O)C(C)C)[C@@H](C)CC)[C@@H](C)O)C(N)=O)C(=O)O)C(=O)O)C(=O)O [SA10SC-RLX] (Ac-LEGREKVRAK(Ac)I[Aib][Aib]EG[Nle]STWS[Aib]RKK(Ac)K([AEEA-AEEA-AEEA-γGlu-γGlu-γGlu-Stearoyl])-NH2) | – | – | 0.19
